Assay results as given in ChEMBL document CHEMBL4334464, “From Phenylthiazoles to Phenylpyrazoles: Broadening the Antibacterial Spectrum toward Carbapenem-Resistant Bacteria” (J Med Chem, 2019).
Values after ≈ are worked out from the molar mass of the structure shown. Active and inactive are the calls of the source. The rule behind the calls is not given here.

Columns and labels:
Klebsiella pneumoniae [1] = experiment: Antibacterial activity against carbapenem-resistant Klebsiella pneumoniae ATCC BAA-2146 clinical isolates after 18 to 20 hrs in aerobic condition by CLSI-based broth microdilution assay; type: functional
Klebsiella pneumoniae [2] = experiment: Antibacterial activity against carbapenem-resistant Klebsiella pneumoniae ATCC BAA-1705 clinical isolates after 18 to 20 hrs in aerobic condition by CLSI-based broth microdilution assay; type: functional
Pseudomonas aeruginosa [3] = experiment: Ratio of MBC to MIC for Pseudomonas aeruginosa ATCC 15442 clinical isolates; type: functional
Salmonella enteritidis [4] = experiment: Ratio of MBC to MIC for Salmonella enteritidis ATCC 14028 clinical isolates; type: functional, Salmonella enterica subsp. enterica serovar Enteritidis
Escherichia coli [5] = experiment: Antibacterial activity against carbapenem-resistant Escherichia coli BAA-2469 clinical isolates after 18 to 20 hrs in aerobic condition by CLSI-based broth microdilution assay; type: functional
Salmonella enteritidis [6] = experiment: Antibacterial activity against Salmonella enteritidis ATCC 14028 clinical isolates after 18 to 20 hrs in aerobic condition by CLSI-based broth microdilution assay; type: functional, Salmonella enterica subsp. enterica serovar Enteritidis; settings: Salmonella enterica
Staphylococcus aureus [7] = experiment: Antibacterial activity against linezolid-resistant/Methicillin-resistant Staphylococcus aureus NRS119 clinical isolates after 18 to 20 hrs in aerobic condition by CLSI protocol based broth microdilution assay; type: functional
Staphylococcus aureus [8] = experiment: Bactericidal activity against methicillin-resistant Staphylococcus aureus NRS123-USA400 clinical isolates at 5 times MIC incubated over 24 hrs followed by replating on tryptic soy agar plate and further incubated for 18 to 20 hrs by time kill assay; type: functional, organism-based
Clostridioides difficile [9] = experiment: Antibacterial activity against Clostridium difficile ATCC BAA 1870 incubated for 48 hrs in anaerobic condition by CLSI-based broth microdilution assay; type: functional; settings: ATCC BAA 1870, 48 h
Acinetobacter baumannii [10] = experiment: Ratio of MBC to MIC for Acinetobacter baumannii NR 17785 clinical isolates; type: functional
Shigella flexneri [11] = experiment: Antibacterial activity against Shigella flexneri ATCC 9199 clinical isolates after 18 to 20 hrs in aerobic condition by CLSI-based broth microdilution assay; type: functional
Klebsiella pneumoniae [12] = experiment: Ratio of MBC to MIC for Klebsiella pneumoniae BAA-1706 after 18 to 20 hrs in aerobic condition by CLSI-based broth microdilution assay; type: functional
Escherichia coli [13] = experiment: Antibacterial activity against carbapenem-resistant Escherichia coli BAA-2452 clinical isolates after 18 to 20 hrs in aerobic condition by CLSI-based broth microdilution assay; type: functional
Pseudomonas aeruginosa [14] = experiment: Antibacterial activity against Pseudomonas aeruginosa ATCC 15442 clinical isolates after 18 to 20 hrs in aerobic condition by CLSI-based broth microdilution assay; type: functional
Pseudomonas aeruginosa [15] = experiment: microbe, parasite or virus in culture; settings: ATCC 25619
Description: Antibacterial activity against Pseudomonas aeruginosa ATCC 25619 clinical isolates after 18 to 20 hrs in aerobic condition by CLSI-based broth microdilution assay

Enterococcus faecium [16] = experiment: Ratio of MBC to MIC for vancomycin-resistant Enterococcus faecium ATCC 700221 clinical isolates; type: functional
Clostridioides difficile [17] = experiment: Ratio of MBC to MIC for Clostridium difficile ATCC BAA 1870; type: functional
Salmonella typhimurium = experiment: Ratio of MBC to MIC for Salmonella typhimurium ATCC 700720 clinical isolates; type: functional, Salmonella enterica subsp. enterica serovar Typhimurium
Acinetobacter baumannii [18] = experiment: Antibacterial activity against Acinetobacter baumannii NR 17785 clinical isolates after 18 to 20 hrs in aerobic condition by CLSI-based broth microdilution assay; type: functional
Salmonella enteritidis [19] = experiment: Ratio of MBC to MIC for Salmonella enteritidis ATCC 13076 clinical isolates; type: functional, Salmonella enterica subsp. enterica serovar Enteritidis
Pseudomonas aeruginosa [20] = experiment: Ratio of MBC to MIC for Pseudomonas aeruginosa ATCC 25619 clinical isolates; type: functional
[21] = system: Enterobacter cloacae subsp. cloacae; experiment: Ratio of MBC to MIC for Enterobacter cloacae subsp. cloacae ATCC BAA-1143 clinical isolates; type: functional
Salmonella enteritidis [22] = experiment: Antibacterial activity against Salmonella enteritidis ATCC 13076 clinical isolates after 18 to 20 hrs in aerobic condition by CLSI-based broth microdilution assay; type: functional, Salmonella enterica subsp. enterica serovar Enteritidis; settings: Salmonella enterica
Klebsiella pneumoniae [23] = experiment: Antibacterial activity against Klebsiella pneumoniae BAA-1706 clinical isolates after 18 to 20 hrs in aerobic condition by CLSI-based broth microdilution assay; type: functional
Pseudomonas aeruginosa [24] = experiment: Antibacterial activity against carbapenem-resistant Pseudomonas aeruginosa ATCC 1744 clinical isolates after 18 to 20 hrs in aerobic condition by CLSI-based broth microdilution assay; type: functional
Pseudomonas aeruginosa [25] = experiment: Ratio of MBC to MIC for Pseudomonas aeruginosa ATCC 9027 clinical isolates; type: functional
Staphylococcus aureus [26] = experiment: Ratio of MBC to MIC for Methicillin-sensitive Staphylococcus aureus ATCC 6538 clinical isolates; type: functional
Shigella flexneri [27] = experiment: Ratio of MBC to MIC for Shigella flexneri ATCC 9199 clinical isolates; type: functional
Acinetobacter baumannii [28] = experiment: Ratio of MBC to MIC for Acinetobacter baumannii ATCC BAA 1141 clinical isolates; type: functional
Staphylococcus aureus [29] = experiment: Antibacterial activity against Methicillin-sensitive Staphylococcus aureus NRS107 clinical isolates after 18 to 20 hrs in aerobic condition by CLSI protocol based broth microdilution assay; type: functional
Enterococcus faecium [30] = experiment: Antibacterial activity against vancomycin-resistant Enterococcus faecium ATCC 700221 clinical isolates after 18 to 20 hrs in aerobic condition by CLSI-based broth microdilution assay; type: functional
Acinetobacter baumannii [31] = experiment: Ratio of MBC to MIC for Acinetobacter baumannii ATCC 19606 clinical isolates; type: functional, ATCC 19606 = CIP 70.34 = JCM 6841
Streptococcus pneumoniae = experiment: Antibacterial activity against methicillin-resistant Streptococcus pneumoniae ATCC 700677 clinical isolates after 18 to 20 hrs by CLSI-based broth microdilution assay; type: functional
Staphylococcus aureus [32] = experiment: Antibacterial activity against vancomycin-resistant Staphylococcus aureus isolate 12 after 18 to 20 hrs in aerobic condition by CLSI-based broth microdilution assay; type: functional
Escherichia coli [33] = experiment: Ratio of MBC to MIC for Escherichia coli BW25113 clinical isolates; type: functional
Acinetobacter baumannii [34] = experiment: microbe, parasite or virus in culture; settings: ATCC BAA 1747
Description: Antibacterial activity against Acinetobacter baumannii ATCC BAA 1747 after 18 to 20 hrs in aerobic condition by CLSI-based broth microdilution assay

Acinetobacter baumannii [35] = experiment: Antibacterial activity against Acinetobacter baumannii ATCC BAA 1141 clinical isolates after 18 to 20 hrs in aerobic condition by CLSI-based broth microdilution assay; type: functional
Staphylococcus aureus [36] = experiment: Antibacterial activity against vancomycin-resistant Staphylococcus aureus isolate 10 after 18 to 20 hrs in aerobic condition by CLSI-based broth microdilution assay; type: functional
Staphylococcus aureus [37] = experiment: Ratio of MBC to MIC for Methicillin-sensitive Staphylococcus aureus NRS107 clinical isolates; type: functional
Escherichia coli [38] = experiment: microbe, parasite or virus in culture; settings: ATCC 1411
Description: Antibacterial activity against Escherichia coli ATCC 1411 clinical isolates after 18 to 20 hrs in aerobic condition by CLSI-based broth microdilution assay

Staphylococcus aureus [39] = experiment: Antibacterial activity against Methicillin-resistant Staphylococcus aureus NRS123-USA400 clinical isolates after 18 to 20 hrs in aerobic condition by CLSI protocol based broth microdilution assay; type: functional
Acinetobacter baumannii [40] = experiment: Ratio of MBC to MIC for Acinetobacter baumannii ATCC BAA 1747 clinical isolates; type: functional
Acinetobacter baumannii [41] = experiment: Antibacterial activity against Acinetobacter baumannii NR 17786 clinical isolates after 18 to 20 hrs in aerobic condition by CLSI-based broth microdilution assay; type: functional
Escherichia coli [42] = experiment: Antimicrobial activity against Escherichia coli JW55031 harboring deltatolC mutant after 18 to 20 hrs in aerobic condition by CLSI protocol based broth microdilution assay; type: functional
Klebsiella pneumoniae [43] = experiment: Antibacterial activity against Klebsiella pneumoniae BAA-1144 clinical isolates after 18 to 20 hrs in aerobic condition by CLSI-based broth microdilution assay; type: functional

Structure (SMILES): C/C(=N\NC(=N)N)c1cnn(-c2ccc(C#CC3(O)CCCCC3)cc2)c1C
- MIC (Klebsiella pneumoniae [1]): > 64 µg/mL
- MIC (Klebsiella pneumoniae [2]): 64 µg/mL (≈ 169 µM)
- Ratio (Pseudomonas aeruginosa [3]): >=1
- Ratio (Salmonella enteritidis [4]): >=1
- MIC (Escherichia coli [5]): 64 µg/mL (≈ 169 µM)
- MIC (Salmonella enteritidis [6]): 32 µg/mL (≈ 84.5 µM)
- MIC (Staphylococcus aureus [7]): 2 µg/mL (≈ 5.28 µM)
- Activity (Staphylococcus aureus [8]): Active
- MIC (Clostridioides difficile [9]): 4 µg/mL (≈ 10.6 µM)
- Ratio (Acinetobacter baumannii [10]): >=1
- MIC (Shigella flexneri [11]): 16 µg/mL (≈ 42.3 µM)
- Ratio (Klebsiella pneumoniae [12]): >=1
- MIC (Escherichia coli [13]): 64 µg/mL (≈ 169 µM)
- MIC (Pseudomonas aeruginosa [14]): 64 µg/mL (≈ 169 µM)
- MIC (Pseudomonas aeruginosa [15]): 32 µg/mL (≈ 84.5 µM)
- Ratio (Enterococcus faecium [16]): <3
- Ratio (Clostridioides difficile [17]): <3
- Ratio (Salmonella typhimurium): >=1
- MIC (Acinetobacter baumannii [18]): 8 µg/mL (≈ 21.1 µM)
- Ratio (Salmonella enteritidis [19]): >=1
- Ratio (Pseudomonas aeruginosa [20]): >=1
- Ratio [21]: > 1
- MIC (Salmonella enteritidis [22]): 32 µg/mL (≈ 84.5 µM)
- MIC (Klebsiella pneumoniae [23]): 8 µg/mL (≈ 21.1 µM)
- MIC (Pseudomonas aeruginosa [24]): 64 µg/mL (≈ 169 µM)
- Ratio (Pseudomonas aeruginosa [25]): >=1
- Ratio (Staphylococcus aureus [26]): <=2
- Ratio (Shigella flexneri [27]): >=1
- Ratio (Acinetobacter baumannii [28]): >=1
- MIC (Staphylococcus aureus [29]): 4 µg/mL (≈ 10.6 µM)
- MIC (Enterococcus faecium [30]): 2 µg/mL (≈ 5.28 µM)
- Ratio (Acinetobacter baumannii [31]): >=1
- MIC (Streptococcus pneumoniae): 2 µg/mL (≈ 5.28 µM)
- MIC (Staphylococcus aureus [32]): 2 µg/mL (≈ 5.28 µM)
- Ratio (Escherichia coli [33]): >=1
- MIC (Acinetobacter baumannii [34]): 16 µg/mL (≈ 42.3 µM)
- MIC (Acinetobacter baumannii [35]): 8 µg/mL (≈ 21.1 µM)
- MIC (Staphylococcus aureus [36]): 2 µg/mL (≈ 5.28 µM)
- Ratio (Staphylococcus aureus [37]): <=2
- MIC (Escherichia coli [38]): 32 µg/mL (≈ 84.5 µM)
- MIC (Staphylococcus aureus [39]): 2 µg/mL (≈ 5.28 µM)
- Ratio (Acinetobacter baumannii [40]): >=1
- MIC (Acinetobacter baumannii [41]): 16 µg/mL (≈ 42.3 µM)
- MIC (Escherichia coli [42]): 4 µg/mL (≈ 10.6 µM)
- MIC (Klebsiella pneumoniae [43]): 16 µg/mL (≈ 42.3 µM)

Structure (SMILES): CCCCCC#Cc1ccc(-n2ncc(/C(C)=N/NC3=NCCN3)c2C)cc1
- Ratio (Pseudomonas aeruginosa [3]): >=1
- Ratio (Salmonella enteritidis [4]): >=1
- MIC (Salmonella enteritidis [6]): > 128 µg/mL
- MIC (Staphylococcus aureus [7]): 2 µg/mL (≈ 5.31 µM)
- Activity (Staphylococcus aureus [8]): Active
- MIC (Clostridioides difficile [9]): 4 µg/mL (≈ 10.6 µM)
- Ratio (Acinetobacter baumannii [10]): >=1
- MIC (Shigella flexneri [11]): > 128 µg/mL
- Ratio (Klebsiella pneumoniae [12]): >=1
- MIC (Pseudomonas aeruginosa [14]): > 128 µg/mL
- MIC (Pseudomonas aeruginosa [15]): > 128 µg/mL
- Ratio (Enterococcus faecium [16]): <3
- Ratio (Clostridioides difficile [17]): <3
- Ratio (Salmonella typhimurium): >=1
- MIC (Acinetobacter baumannii [18]): > 128 µg/mL
- Ratio (Salmonella enteritidis [19]): >=1
- Ratio (Pseudomonas aeruginosa [20]): >=1
- Ratio [21]: > 1
- MIC (Salmonella enteritidis [22]): > 128 µg/mL
- MIC (Klebsiella pneumoniae [23]): > 128 µg/mL
- Ratio (Pseudomonas aeruginosa [25]): >=1
- Ratio (Staphylococcus aureus [26]): <=2
- Ratio (Shigella flexneri [27]): >=1
- Ratio (Acinetobacter baumannii [28]): >=1
- MIC (Staphylococcus aureus [29]): 4 µg/mL (≈ 10.6 µM)
- MIC (Enterococcus faecium [30]): 2 µg/mL (≈ 5.31 µM)
- Ratio (Acinetobacter baumannii [31]): >=1
- MIC (Streptococcus pneumoniae): 2 µg/mL (≈ 5.31 µM)
- MIC (Staphylococcus aureus [32]): 2 µg/mL (≈ 5.31 µM)
- Ratio (Escherichia coli [33]): >=1
- MIC (Acinetobacter baumannii [34]): > 128 µg/mL
- MIC (Acinetobacter baumannii [35]): > 128 µg/mL
- MIC (Staphylococcus aureus [36]): 2 µg/mL (≈ 5.31 µM)
- Ratio (Staphylococcus aureus [37]): <=2
- MIC (Escherichia coli [38]): > 128 µg/mL
- MIC (Staphylococcus aureus [39]): 4 µg/mL (≈ 10.6 µM)
- Ratio (Acinetobacter baumannii [40]): >=1
- MIC (Acinetobacter baumannii [41]): > 128 µg/mL
- MIC (Escherichia coli [42]): 2 µg/mL (≈ 5.31 µM)
- MIC (Klebsiella pneumoniae [43]): > 128 µg/mL
